# Values of other authors, collected in PMC4424193 (European journal of drug metabolism and pharmacokinetics, 2014).
# Like-named read-outs stand apart in the source and are kept apart here.
# Key:
# [1] = rats, single intragastric 50 mg/kg in 2% starch suspension; ref Kaverina (1983)
# [2] = molecular target: FAK; conditions: binding studies; ref Kurenova et al. 2013
# [3] = humans, ref Yeh et al. 1986; for Cmax: at 0.5 hrs post-dose
# [4] = rat, after 24 hrs; ref Yeh 1990
# [5] = man, single oral 50 mg dose, 24 hr urine collections; ref Chung (1994)
# [6] = ref Dirikolu (2009); for Cmax: horse serum
# [7] = CD1 mice, 44.6 mg/kg IP C4 free base, ref Thudium 2011
smiles,measurement,setting,value
"CN(C)CCN(Cc1ccc(Cl)cc1)c1ccccn1 [C4, N-[(4-chlorophenyl)-methyl]-N-[2-(dimethylamino)-ethyl]-pyridin-2-amine]",Cmax,[1],370 ng/mL
same,T½,[1],14.9 h
same,serum concentration at 24 hrs (mean),[1],160 ± 10 ng/mL
same,plasma Cmax (mean),[7],820 ng/mL
same,time of peak plasma concentration,[7],0.67 h
same,T½,"mice, 44.6 mg/kg free base IV dose, ref Thudium (2011)",0.83 ± 0.34 h
same,24 hr concentration,"mice, 44.6 mg/kg free base, ref Thudium (2011)",0 µg/mL
same,Bioavailability,"mice, oral vs IP routes of administration, previously determined",15.5%
same,Cmax,"mouse IV, ref Thudium (2011)",820 ng/mL
same,C4 to FAK dissociation constant (Kd),[2],0.165 µg/mL
CN(C)CCN(Cc1ccccc1)c1ccccn1 [tripelennamine],Cmax,[3]; 50 mg intramuscular,105 ng/mL
same,t½,[3]; 50 mg intramuscular,2.9 ± 0.25 h
same,Cmax,[3]; 100 mg intramuscular,194 ng/mL
same,t½,[3]; 100 mg intramuscular,4.4 ± 1.3 h
same,dose recovered unchanged in urine,[4],2-3%
"COc1ccc(CN(CCN(C)C)c2ccccn2)cc1 [Pyrilamine, pyrilamine]",parent compound in urine,[5],no parent compound was observed in the urine
same,Cmax,"[6]; IV 300 mg/horse, at 5 minutes",280 ng/mL
same,Cmax,[6]; oral 300 mg/horse,36.6 ng/mL
same,half-life (t½),"[6]; horse, IV 300 mg/horse",1.67 h
same,detection in serum at 24 hrs,"[6]; horse, either route of administration (IV, oral)",not detected
same,Tmax,"[6]; horse, oral 300 mg/horse",0.44 h
